Converted amounts (≈) assume the structure as drawn. Read-outs that look alike come from different tables or passages of the source.
Experiments:
Enterobacter cloacae 963 = assay: In vitro antibacterial activity, two-fold agar-plate dilution method (MIC); assay type: cell-based
Protocol: (§1) In vitro antibacterial activity was determined by the two-fold agar-plate dillution method.
(§2) One loopful of an overnight culture of each test starin in Trypticase-soy broth (10^6 viable cells per mt) was streaked on heart infusion agar (Muller-Hinton Agar) containing graded concentrations of representative test compound, and the minimal inhibitory concentration (MIC) was expressed in terms of µg/ml after incubation at 37°C for 16 hours.
(§3) In vitro antibacterial activities of other compounds of the present invention were determined in the same way as in Example 26.

Proleus morgani IFO3848 = assay: as above; assay type: cell-based; settings: 37°C for 16 hours
Protocol: as §1, §2, §3

Proleus vulgaria OX-19 = assay: as above; assay type: cell-based; settings: 37°C for 16 hours
Protocol: as §1, §2, §3

[1] = system: Proleus vulgaris IFO 3850; assay: as above; assay type: cell-based
Protocol: as §1, §2, §3

[2] = system: Pseudomonas aeruginosa IFO3445; assay: as above; assay type: cell-based
Protocol: as §1, §2, §3

Salmonera paratyphi 1015 = assay: as above; assay type: cell-based
Protocol: as §1, §2, §3

[3] = system: Serratia marcescens IAM1184; assay: as above; assay type: cell-based
Protocol: as §1, §2, §3

Staphyrococcus Terajima = assay: as above; assay type: cell-based
Protocol: as §1, §2, §3

[4] = system: Butilus subtilis ATCC6633; assay: as above; assay type: cell-based; settings: 37°C for 16 hours
Protocol: as §1, §2

[5] = system: Escherichia coli K-12C-600; assay: as above; assay type: cell-based; settings: K12C600, 37°C for 16 hours
Protocol: as §1, §2

[6] = system: Micrococcus luteus ATCC9341; assay: as above; assay type: cell-based
Protocol: as §1, §2

[7] = system: Pseudomonas aeruginosa NCTC10490; assay: as above; assay type: cell-based
Protocol: as §1, §2

[8] = system: Pseudomonas aeruginosa PAO1; assay: as above; assay type: cell-based
Protocol: as §1, §2

[9] = system: Salmonera schottmuelleri 8001; assay: as above; assay type: cell-based; settings: 37°C for 16 hours
Protocol: as §1, §2

[10] = system: Salmonera typhimurium IID 971; assay: as above; assay type: cell-based; settings: 37°C for 16 hours
Protocol: as §1, §2

[11] = system: Staphyrococcus aureus FDA209JC-1; assay: as above; assay type: cell-based
Protocol: as §1, §2

[12] = system: Staphyrococcus aureus MS 353; assay: as above; assay type: cell-based
Protocol: as §1, §2

[13] = system: Staphyrococcus pyogenes COOK; assay: as above; assay type: cell-based
Protocol: as §1, §2

E.coli 81 = assay: In vivo antibacterial activity: survival of mice infected with E.coli 81; design: species or system ICR strain male mice
Protocol: Experiment was performed in ICR strain male mice (5W) weighing 22 to 25 g. The animals were used in a group of 10 per regimen. Test organism, E.coli 81, was cultured on Mueller-Hinton agar over night at 37°C and suspended in saline to be one minimal lethal dose (5 x 10^5 cells/head). One mililitre of the bacterial suspension was injected intrapenetoreally and, after 15 minutes, mice were treated subcutaneously with various doses of compound (100) and comparative compound B. Survival mice were counted for 4 days and final observation was carried out on day 4.

[14] = Enterobacter cloacae 963, agar dilution, 37°C for 16 hours, read-out: MIC
[15] = Pseudomonas aeruginosa IFO3445, agar dilution, 37°C for 16 hours, read-out: MIC
[16] = Serratia marcescens, IAM1184, 16 h
[17] = Staphyrococcus Terajima, agar dilution, 37°C for 16 hours, read-out: MIC
[18] = Proleus vulgaris IFO 3850, agar dilution, 37°C for 16 hours, read-out: MIC
[19] = Serratia marcescens IAM1184, agar dilution, 37°C for 16 hours, read-out: MIC

CO/N=C(\C(=O)N[C@@H]1C(=O)N2C(C(=O)[O-])=C(C[N+]34CCC(CC3)C(=O)C4)CS[C@H]12)c1csc(N)n1 [Compound (300), (6R,7R)-7-[(Z)-2-(2-aminothiazol-4-yl)-2-methoxyiminoacetoamido]-3-(1-aza-3-carbonyl-bicyclo[2,2,2]octane-l-io)methyl-3-cephem-4-carboxylate]
MIC (Enterobacter cloacae 963; [14]): 0.025 mg/L (≈ 0.048 µM)
MIC (Proleus morgani IFO3848; read-out: MIC): > 0.0063 mg/L
MIC (Proleus vulgaria OX-19; read-out: MIC): 0.025 mg/L (≈ 0.048 µM)
MIC ([1]; 16 h): 0.0125 mg/L (≈ 0.024 µM)
MIC [2, 15]: 0.39 mg/L (≈ 0.749 µM)
MIC (Salmonera paratyphi 1015; 16 h): 0.0125 mg/L (≈ 0.024 µM)
MIC [3, 16]: 0.0125 mg/L (≈ 0.024 µM)
MIC (Staphyrococcus Terajima; [17]): 0.2 mg/L (≈ 0.384 µM)

CO/N=C(\C(=O)N[C@@H]1C(=O)N2C(C(=O)[O-])=C(C[N+]34CCC(CC3)C(O)C4)CS[C@H]12)c1csc(N)n1 (stereo partly drawn) [Compound (302), (6R,7R)-7-[(Z)-2-(2-aminothiazol-4-yℓ)-2-methoxyiminoacetoamido]-3-(1-aza-3-hydro-xybicyclo[2,2,2]octane-l-io)methyl-3-cephem-4-carboxylate]
MIC (Enterobacter cloacae 963; [14]): 0.025 mg/L (≈ 0.0478 µM)
MIC (Proleus morgani IFO3848; read-out: MIC): 0.0063 mg/L (≈ 0.0121 µM)
MIC (Proleus vulgaria OX-19; read-out: MIC): 0.025 mg/L (≈ 0.0478 µM)
MIC [1, 18]: 0.0063 mg/L (≈ 0.0121 µM)
MIC [2, 15]: 0.39 mg/L (≈ 0.746 µM)
MIC (Salmonera paratyphi 1015; 16 h): 0.0125 mg/L (≈ 0.0239 µM)
MIC [3, 16]: 0.0125 mg/L (≈ 0.0239 µM)
MIC (Staphyrococcus Terajima; [17]): 0.1 mg/L (≈ 0.191 µM)

CON=C(C(=O)NC1C(=O)N2C(C(=O)O)=C(CSc3nnnn3C)CSC12)c1csc(N)n1 (stereo not shown) [Comparative compound B]
MIC (Enterobacter cloacae 963; [14]): 0.2 mg/L (≈ 0.391 µM)
MIC [2, 15]: 12.5 mg/L (≈ 24.4 µM)
MIC (Staphyrococcus Terajima; [17]): 0.78 mg/L (≈ 1.52 µM)
MIC [4]: 0.78 mg/L (≈ 1.52 µM)
MIC [5]: 0.05 mg/L (≈ 0.0977 µM)
MIC ([6]; Micrococcus luteus ATCC9341, agar dilution, 37°C for 16 hours, read-out: MIC): 0.39 mg/L (≈ 0.762 µM)
MIC ([7]; Pseudomonas aeruginosa NCTC10490, agar dilution, 37°C for 16 hours, read-out: MIC): 0.39 mg/L (≈ 0.762 µM)
MIC ([8]; Pseudomonas aeruginosa PAO1, agar dilution, 37°C for 16 hours, read-out: MIC): 12.5 mg/L (≈ 24.4 µM)
MIC [9]: 0.0063 mg/L (≈ 0.0123 µM)
MIC [10]: 0.39 mg/L (≈ 0.762 µM)
MIC ([11]; Staphyrococcus aureus FDA209JC-1, agar dilution, 37°C for 16 hours, read-out: MIC): 3.12 mg/L (≈ 6.1 µM)
MIC ([12]; Staphyrococcus aureus MS 353, agar dilution, 37°C for 16 hours, read-out: MIC): 0.2 mg/L (≈ 0.391 µM)
MIC ([13]; Staphyrococcus pyogenes COOK, agar dilution, 37°C for 16 hours, read-out: MIC): 0.025 mg/L (≈ 0.0489 µM)
Survivals percent (%) on day 4 (E.coli 81; Dose 0.016 mg/head subcutaneously 15 minutes after intraperitoneal E.coli 81 (5 x 10^5 cells/head)): 0%
Survivals percent (%) on day 4 (E.coli 81; Dose 0.032 mg/head subcutaneously 15 minutes after intraperitoneal E.coli 81 (5 x 10^5 cells/head)): 20%
Survivals percent (%) on day 4 (E.coli 81; Dose 0.063 mg/head subcutaneously 15 minutes after intraperitoneal E.coli 81 (5 x 10^5 cells/head)): 30%
Survivals percent (%) on day 4 (E.coli 81; Dose 0.125 mg/head subcutaneously 15 minutes after intraperitoneal E.coli 81 (5 x 10^5 cells/head)): 40%
Survivals percent (%) on day 4 (E.coli 81; Dose 0.25 mg/head subcutaneously 15 minutes after intraperitoneal E.coli 81 (5 x 10^5 cells/head)): 40%
Survivals percent (%) on day 4 (E.coli 81; Dose 0.5 mg/head subcutaneously 15 minutes after intraperitoneal E.coli 81 (5 x 10^5 cells/head)): 40%

CO/N=C(\C(=O)N[C@@H]1C(=O)N2C(C(=O)[O-])=C(C[N+]34CCCCC3CCCC4)CS[C@H]12)c1csc(N)n1 (stereo partly drawn) [Compound (104), (6R,7R)-[(Z)-2-(2-aminothiazol-4-yl)-2-methoxyiminoacetoamido]-3-(1-azabicyclo [4,4,0]decane-1-io) methyl-3-cephem-4-carboxylate]
MIC (Enterobacter cloacae 963; [14]): 0.1 mg/L (≈ 0.187 µM)
MIC (Proleus morgani IFO3848; read-out: MIC): 0.0125 mg/L (≈ 0.0234 µM)
MIC (Proleus vulgaria OX-19; read-out: MIC): 0.025 mg/L (≈ 0.0468 µM)
MIC [1, 18]: 0.0125 mg/L (≈ 0.0234 µM)
MIC [2, 15]: 1.56 mg/L (≈ 2.92 µM)
MIC (Salmonera paratyphi 1015; 16 h): 0.025 mg/L (≈ 0.0468 µM)
MIC [3, 19]: 0.025 mg/L (≈ 0.0468 µM)
MIC (Staphyrococcus Terajima; [17]): 0.39 mg/L (≈ 0.729 µM)

CO/N=C(\C(=O)N[C@@H]1C(=O)N2C(C(=O)[O-])=C(C[N+]34CCCC3CCC4C)CS[C@H]12)c1csc(N)n1 (stereo partly drawn) [Compound (106), (6R,7R)-7-[(Z)-2-(2-aminothiazol-4-yℓ)-2-methoxyiminoacetoamido]-3-(l-aza-8-methl-bicyclo[3,3,0]octane-l-io)methyl-3-cephem-4-carboxylate]
MIC (Enterobacter cloacae 963; Enterobacter cloacae 963, agar dilution, 37°C for 16 hours): 0.2 mg/L (≈ 0.384 µM)
MIC (Proleus morgani IFO3848): 0.025 mg/L (≈ 0.048 µM)
MIC (Proleus vulgaria OX-19): 0.025 mg/L (≈ 0.048 µM)
MIC ([1]; Proleus vulgaris IFO 3850, agar dilution, 37°C for 16 hours): 0.0125 mg/L (≈ 0.024 µM)
MIC ([2]; Pseudomonas aeruginosa IFO3445, agar dilution, 37°C for 16 hours): 0.78 mg/L (≈ 1.5 µM)
MIC (Salmonera paratyphi 1015; Salmonera paratyphi 1015, agar dilution, 37°C for 16 hours): 0.025 mg/L (≈ 0.048 µM)
MIC ([3]; Serratia marcescens IAM1184, agar dilution, 37°C for 16 hours): 0.05 mg/L (≈ 0.096 µM)
MIC (Staphyrococcus Terajima; Staphyrococcus Terajima, agar dilution, 37°C for 16 hours): 0.2 mg/L (≈ 0.384 µM)

CC(C)(ON=C(C(=O)NC1C(=O)N2C(C(=O)[O-])=C(C[n+]3ccccc3)CSC12)c1csc(N)n1)C(=O)O (stereo not shown) [Comparative compound A]
MIC (Enterobacter cloacae 963; Enterobacter cloacae, 963, 16 h): 0.2 mg/L (≈ 0.366 µM)
MIC ([2]; Pseudomonas aeruginosa, IFO3445, 16 h): 1.56 mg/L (≈ 2.85 µM)
MIC (Staphyrococcus Terajima; 16 h): 1.56 mg/L (≈ 2.85 µM)
MIC [4]: 0.78 mg/L (≈ 1.43 µM)
MIC [5]: 0.2 mg/L (≈ 0.366 µM)
MIC ([6]; Micrococcus luteus, ATCC9341, 16 h): 0.0063 mg/L (≈ 0.0115 µM)
MIC ([7]; Pseudomonas aeruginosa, NCTC10490, 16 h): 0.39 mg/L (≈ 0.714 µM)
MIC ([8]; Pseudomonas aeruginosa, PAO1, 16 h): 0.1 mg/L (≈ 0.183 µM)
MIC [9]: 0.025 mg/L (≈ 0.0457 µM)
MIC [10]: 0.39 mg/L (≈ 0.714 µM)
MIC ([11]; 16 h): 1.56 mg/L (≈ 2.85 µM)
MIC ([12]; 16 h): 1.56 mg/L (≈ 2.85 µM)
MIC ([13]; 16 h): 0.0063 mg/L (≈ 0.0115 µM)

CC(C)(O/N=C(\C(=O)N[C@@H]1C(=O)N2C(C(=O)[O-])=C(C[N+]34CCCC3CCC4)CS[C@H]12)c1csc(N)n1)C(=O)O (stereo partly drawn) [Compound (116), (6R,7R)-7-[(Z)-2-(2-aminothiazol-4-yl)-2-(2-carboxypropyl-2-yloxyimino)acetoamido]-3-(1-azabicyclo[3,3,0]octane-l-io)methyl-3-cephem-4-carboxylate]
MIC (Enterobacter cloacae 963; [14]): 0.05 mg/L (≈ 0.0864 µM)
MIC (Proleus morgani IFO3848; read-out: MIC): 0.0063 mg/L (≈ 0.0109 µM)
MIC [1, 18]: 0.0063 mg/L (≈ 0.0109 µM)
MIC [2, 15]: 0.2 mg/L (≈ 0.346 µM)
MIC (Salmonera paratyphi 1015; 16 h): 0.0125 mg/L (≈ 0.0216 µM)
MIC [3, 16]: 0.0125 mg/L (≈ 0.0216 µM)
MIC (Staphyrococcus Terajima; [17]): 0.78 mg/L (≈ 1.35 µM)

CO/N=C(\C(=O)N[C@@H]1C(=O)N2C(C(=O)[O-])=C(C[N+]34CCC(CC3)C4)CS[C@H]12)c1csc(N)n1 [Compound (200), (6R,7R)-7-[(Z)-2-(2-aminothiazol-4-yℓ)-2-methoxyiminoacetoamido]-3-(1-azabicyclo[2,2,1]heptane-l-io)methyl-3-cephem-4-carboxylate]
MIC (Enterobacter cloacae 963; [14]): 0.05 mg/L (≈ 0.102 µM)
MIC (Proleus morgani IFO3848; read-out: MIC): 0.0063 mg/L (≈ 0.0128 µM)
MIC (Proleus vulgaria OX-19; read-out: MIC): 0.05 mg/L (≈ 0.102 µM)
MIC [1, 18]: 0.0125 mg/L (≈ 0.0254 µM)
MIC [2, 15]: 1.56 mg/L (≈ 3.17 µM)
MIC (Salmonera paratyphi 1015; 16 h): 0.025 mg/L (≈ 0.0508 µM)
MIC [3, 19]: 0.025 mg/L (≈ 0.0508 µM)
MIC (Staphyrococcus Terajima; [17]): 0.2 mg/L (≈ 0.406 µM)
